The values below come from US20060063944A1, “Estrone derivatives and process for producing same” (CHUGAI SEIYAKU KABUSHIKI KAISHA, priority 2002, published 2006).

The subject of data set [1] is increase in the weight of the uterus induced by 17β-estradiol benzoate. The data set is described as follows: Anti-estrogen activity in oral administration (suppression of estradiol-induced increase in uterus weight in ovariectomized mice). The format is in vivo. The conditions noted are these: ovariectomized ICR mice, oral 10 mg/kg once a day for 3 days, 17β-estradiol benzoate 0.1 μg s.c. The protocol: In the test, each of the test compounds and a control compound were suspended in a 5% gum arabic solution and administered to the mice orally in doses of 10 mg/kg on a once-a-day basis for 3 days. Twenty-four hours after the administration of the final dose, the test animals were slaughtered and the uterus was extracted and its weight was measured.

In data set [2] the test system is bone marrow derived osteoclast precursor cells. Kind of data set: Differentiation of bone marrow derived osteoclast precursor cells into mature osteoclasts (TRAP staining). It is filed as cell-based, ddY mice. The conditions noted are these: mean ± SD, n=3, 48-well plates. The protocol:
Bone marrow cells separated from the vertebrae of ddY mice (male, 7-9 week old) were cultivated on cell culture plates for 3 days in the presence of a macrophage colony-stimulating factor (M-CSF, 10 ng/ml). The suspended cells were washed with PBS and removed whereas the cells adhering to the plates were used as osteoclast precursor cells. Following the addition of more M-CSF (10 ng/ml) and a soluble RANK ligand (sRANKL, 40 ng/ml), the precursors were cultivated for 3-4 days in order to induce the maturation of osteoclasts. Before this cultivation, either compound 1 or a solvent (ethanol) alone was added in order to see what effects they would have. The maturation of osteoclasts was evaluated by staining the cultivated cells with a tartrate resistant acid phosphatase (TRAP) and counting the number of trinuclear and higher TRAP stained cells. Table 1 and FIG. 1 show the mean and SD values for the experiment in which the number of mature osteoclasts that were produced per well in 48-well plates was evaluated for n=3.

Data set [3] deals with T1, intranuclear estrogen receptor (EgR) (Homo sapiens, UniProt P03372).
T1 construct: endogenous in cells; host or cells: MCF-7 (ATCC)
The data set is described as follows: Estrogen receptor downregulating activity (intranuclear EgR content in MCF-7). It is filed as cell-based. The settings on record: MCF-7 cells; for DC50: 2 days with compound, ER-EIA, read-out: IC50 (intranuclear EgR content). The protocol:
Tris(hydroxymethyl)aminomethane, dithiothreitol and glycerol were obtained from Nacalai Tesque. Protease inhibitor tablets were obtained from Boehringer Mannheim. Human breast cancer cell line MCF-7 was obtained from ATCC, fetal calf serum (FCS) from Hyclone, DMEM from Invitrogen, and PBS(−) from Nissui.
Tris-HCl buffer (1 mol/L, pH=7.4) was diluted 50-fold with distilled water to a concentration of 20 mmol/L (pH=7.4). To the diluted buffer, dithiothreitol and glycerol were added to give respective final concentrations of 1 mmol/L and 10%. Further, protease inhibitor tablets were added, with one tablet per 50 mL of buffer. The thus conditioned solution was used as a solubilizing buffer.
Samples for quantitating the intranuclear estrogen receptor (EgR) were prepared by the following procedure. MCF-7 cultivated in 5% FCS/DMEM was sown on 6-cm dishes at a concentration of 4×10^5 cells/dish and cultivated for 3 days; cultivation was continued for an additional 2 days in the presence of compound 1 or compound 2 at final concentrations of 1-100 nmol/L or in the presence of compound 4 at final concentrations of 1-1,000 nmol/L or compound 5 at final concentrations of 1-10,000 nmol/L. Thereafter, the cells were washed with PBS(−), mixed with the solubilizing buffer, subjected to two cycles of freezing at −80° C. and thawing at room temperature, and centrifuged at 4° C. for 10 minutes at 4000 rpm (centrifuge: TOMY, Model MX-150). To the precipitation, the solubilizing buffer containing 500 mmol/L of NaCl was added and the mixture was treated with a micro-tube mixer (TOMY, Model MT-360) at 4° C. for about 30 minutes. Following centrifugation at 4° C. for 30 minutes at 15,000 rpm (centrifuge: TOMY, Model MX-150), the supernatant was collected and stored at −80° C. as an extracted nuclear sample. The EgR content in the extracted nuclear sample was measured with an EgR assay kit (ER-EIA “ABBOT” of Dynapot).

Data set [4] can be described thus: AUC measurement in oral administration, test with mice. It is filed as in vivo. The conditions noted are these: plasma, 30 mg/kg, 5% gum arabic suspension; for AUC(0-inf): female, ICR, mouse, po; for AUC∞: ICR mice. The protocol:
(§1) The AUC of specified compounds in oral administration was measured by the following tests.
A 5% gum arabic suspension (10 ml/kg) of a test substance (30 mg/kg) was forcibly administered orally into ICR mice (female, 8-10 week old) by means of a mouse stomach probe and after the lapse of specified periods of time (15 minutes, 30 minutes, and 1, 2, 4, 6, 8, 24 and 48 hours), whole blood was taken from the abdominal large vein (n=3 for each time period). The concentration of the test substance in the sampled plasma was measured by HPLC (eluant: acetonitrile/water) and AUC was determined by moment analysis from the average plasma concentration for each time period. The test substances were compound 1, compound 2, compound 4 and compound 5. Two control compounds were used, one being the first component prepared in step 1 of Example 1 (control compound 2) and the other being the second component (control compound 1).

Data set [5] in a line: AUC measurement in oral administration, test with monkeys. The format is in vivo. The settings on record: female, cynomolgus monkey, 3 mg/kg, PEG/water/ethanol solution, plasma. The protocol:
as §1
A PEG/water/ethanol [8/4/3 (v/v)] solution (3 ml/kg) of a test substance (3 mg/kg) was administered orally into cynomolgus monkeys (female, 3-5 years old, 2.5-4 kg) through a catheter inserted from the nostrils into the stomach and about 1 ml of blood was taken over a period of 48 hours at specified time intervals (15 minutes, 30 minutes, and 1, 2, 4, 6, 8, 10, 24 and 48 hours). The concentration of the test substance in the sampled plasma was measured by use of LC/MS/MS (ESI, eluant: acetonitrile/water) and AUC was determined by moment analysis. The test substances were compound 1 and compound 4. The second component prepared in step 1 of Example 1 was used as control compound 1.

For another data set, the system named is breast cancer. The settings on record: cited from earlier work.

T1 sequence (P03372 whole entry): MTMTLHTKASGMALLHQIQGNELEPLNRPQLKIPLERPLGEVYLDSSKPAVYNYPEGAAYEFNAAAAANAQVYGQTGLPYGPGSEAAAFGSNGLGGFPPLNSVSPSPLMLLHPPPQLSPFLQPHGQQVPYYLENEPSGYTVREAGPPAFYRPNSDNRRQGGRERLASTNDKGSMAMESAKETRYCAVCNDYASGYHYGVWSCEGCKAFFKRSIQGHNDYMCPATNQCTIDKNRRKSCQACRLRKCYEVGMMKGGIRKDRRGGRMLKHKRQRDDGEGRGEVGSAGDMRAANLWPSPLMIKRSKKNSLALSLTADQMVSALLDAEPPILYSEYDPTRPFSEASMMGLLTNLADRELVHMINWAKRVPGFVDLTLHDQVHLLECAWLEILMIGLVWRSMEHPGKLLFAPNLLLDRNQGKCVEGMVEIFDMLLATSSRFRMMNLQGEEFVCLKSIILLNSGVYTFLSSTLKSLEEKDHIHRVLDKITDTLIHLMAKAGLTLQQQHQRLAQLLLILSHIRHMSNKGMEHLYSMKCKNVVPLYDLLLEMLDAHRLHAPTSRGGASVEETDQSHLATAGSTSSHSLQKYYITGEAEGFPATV

As to `C[C@]12CC[C@@H]3c4ccc(O)cc4C[C@@H](CCCCCCCCC(CCCC(F)(F)C(F)(F)C(F)(F)C(F)(F)F)C(=O)O)[C@H]3[C@@H]1CCC2=O` (single isomer, unassigned) [Compound 1, 10-(3-hydroxy-17-oxo-estra-1,3,5(10)-trien-7α-yl)-2-(4,4,5,5,6,6,7,7,7-nonafluoroheptyl)decanoic acid], the “Percent suppression (%) of the increase in the weight of the uterus” value (“Percent suppression (%) of the increase” for short) in data set [1] is reported as 96%. In addition, the “No. of mature osteoclasts per well” value in data set [2] (M-CSF + sRANKL + compound at 10^−4 mol/L) is reported as 0 ± 0; in data set [2] (M-CSF + sRANKL + compound at 10^−5 mol/L) it was 34 ± 10. In data set [3], the “Intranuclear EgR content (in words)” value is “reduced the intranuclear EgR content in a dose-dependent manner”. Besides, in data set [3], the DC50 turned out to be 8.4 nM. Also, the area under the curve AUC(0-inf) was 468 µg·h/mL in data set [4] and 2.42 µg·h/mL in data set [5].

Take `C[C@]12CC[C@@H]3c4ccc(O)cc4C[C@@H](CCCCCCCCC(CCCC(F)(F)C(F)(F)C(F)(F)C(F)(F)F)C(=O)O)[C@H]3[C@@H]1CCC2=O` (single isomer, unassigned) [Compound 2, 10-(3-hydroxy-17-oxo-estra-1,3,5(10)-trien-7α-yl)-2-(4,4,5,5,6,6,7,7,7-nonafluoroheptyl)decanoic acid]: in data set [3], the “Intranuclear EgR content (in words)” value is reported as “reduced the intranuclear EgR content in a dose-dependent manner” and the DC50 came out at 8.7 nM. Further, the “AUC∞” value in data set [4] amounted to 722.55 µg·h/mL.

As for `C#C[C@]1(O)CCC2C3C(CC[C@@]21C)c1ccc(O)cc1C[C@H]3CCCCCCCCC(CCCC(F)(F)C(F)(F)C(F)(F)C(F)(F)F)C(=O)O` (single isomer, unassigned) [Compound 4, 10-(3,17β-dihydroxy-17α-ethynyl-estra-1,3,5(10)-trien-7α-yl)-2-(4,4,5,5,6,6,7,7,7-nonafluoroheptyl)decanoic acid], the “Percent suppression (%) of the increase” value in data set [1] (10 mg/kg) is 94%. Besides, in data set [3], the “Intranuclear EgR content (in words)” value is listed as “reduced the intranuclear EgR content in a dose-dependent manner” and the DC50 was 14 nM. For the same compound, the “AUC∞” value in data set [4] was determined as 202.10 µg·h/mL. For the same compound, in data set [5], the AUC(0-inf) is 3.8 µg·h/mL.

As for `C#C[C@]1(O)CCC2C3C(CC[C@@]21C)c1ccc(O)cc1C[C@H]3CCCCCCCCC(CCCC(F)(F)C(F)(F)C(F)(F)C(F)(F)F)C(=O)O` (single isomer, unassigned) [Compound 5, 10-(3,17β-dihydroxy-17α-ethynyl-estra-1,3,5(10)-trien-7α-yl)-2-(4,4,5,5,6,6,7,7,7-nonafluoroheptyl)decanoic acid], the “Percent suppression (%) of the increase” value in data set [1] (10 mg/kg) was 96%. Also, in data set [3], the “Intranuclear EgR content (in words)” value is “reduced the intranuclear EgR content in a dose-dependent manner” and the DC50 stood at 100 nM. Further, the “AUC∞” value in data set [4] stood at 661.00 µg·h/mL.

Turning to `C[C@]12CC[C@@H]3c4ccc(O)cc4C[C@@H](CCCCCCCCC(CCCC(F)(F)C(F)(F)C(F)(F)C(F)(F)F)C(=O)O)[C@H]3[C@@H]1CC[C@@H]2O` (single isomer, unassigned) [Control compound 1, 10-(3,17β-dihydroxyestra-1,3,5(10)-trien-7α-yl)-2-(4,4,5,5,6,6,7,7,7-nonafluoroheptyl)decanoic acid, reference compound], the figures for the AUC(0-inf) in data set [4] and in data set [5] were 274 µg·h/mL and 0.42 µg·h/mL, respectively.

Regarding `C[C@]12CC[C@@H]3c4ccc(O)cc4C[C@@H](CCCCCCCCC(CCCC(F)(F)C(F)(F)C(F)(F)C(F)(F)F)C(=O)O)[C@H]3[C@@H]1CC[C@@H]2O` (single isomer, unassigned) [Control compound 2, 10-(3,17β-dihydroxyestra-1,3,5(10)-trien-7α-yl)-2-(4,4,5,5,6,6,7,7,7-nonafluoroheptyl)decanoic acid, reference compound], the “AUC∞” value in data set [4] came out at 469.73 µg·h/mL.

As to `C[C@]12C[C@H](CCCCCCCCC(CCCC(F)(F)C(F)(F)C(F)(F)C(F)(F)F)C(=O)O)[C@@H]3c4ccc(O)cc4CC[C@H]3[C@@H]1CCC2=O` (stereo partly drawn) [Compound 3, 10-(3-hydroxy-17-oxo-estra-1,3,5(10)-trien-11β-yl)-2-(4,4,5,5,6,6,7,7,7-nonafluoroheptyl)decanoic acid], in data set [1], the “Percent suppression (%) of the increase” value came to 99%.

For the compound `C[C@]12CC[C@@H]3c4ccc(O)cc4C[C@@H](CCCCCCCCC[S+]([O-])CCCC(F)(F)C(F)(F)F)[C@H]3[C@@H]1CC[C@@H]2O` (stereo partly shown) [Faslodex], in the data set with breast cancer (clinical tests, versus a SERM drug and an aromatase inhibitor), the “Objective response rate and duration of response to breast cancer” value was “superior to a SERM drug and an aromatase inhibitor”. In addition, the “Efficacy against tamoxifen-resistant breast cancer” value in the data set with breast cancer (tamoxifen-resistant breast cancer) is reported as “effective against tamoxifen-resistant breast cancer”.
